Assay: Solubility in water
Format: physicochemical

| Solubility in water (Temperature 150° C.) [g/100 g-water] | Solubility in water (Temperature 200° C.) [g/100 g-water] | Structure (SMILES) |
| --- | --- | --- |
| 2.7 | 24.2 | O=C(O)c1cccc(C(=O)O)c1 [Isophthalic acid] |
| 0.01 | 0.04 | O=C(O)c1ccc(-c2ccc(C(=O)O)cc2)cc1 [4,4′-biphenyldicarboxylic acid] |
| 0.03 | 0.21 | O=C(O)c1ccc2cc(C(=O)O)ccc2c1 [2,6-naphthalenedicarboxylic acid] |
| 0.25 | 1.7 | O=C(O)c1ccc(C(=O)O)cc1 [Terephthalic acid] |
